Results as given in ChEMBL document CHEMBL1135285, “Synthesis and structure-activity relationships of a novel series of HIV-1 protease inhibitors encompassing ABT-378 (Lopinavir)” (Bioorg Med Chem Lett, 2002).

How the values were obtained:
MT4 = test: Compound was tested for antiviral activity against HIV-IIIB in MT-4 cells in presence of 50% human serum; type: functional, cell-based
[1] = target: Human immunodeficiency virus type 1 protease (Human immunodeficiency virus 1) (UniProt Q72874); test: Inhibition of HIV protease at 0.5 nM

Row | SMILES | EC50 (MT4) | inhibition [1]
1 | Cc1ccccc1OCC(=O)N[C@H](Cc1ccccc1)[C@H](O)C[C@@H](Cc1ccccc1)NC(=O)[C@@H](C(C)C)N1CCCNC1=O | 0.43 µM | 84%
2 | Cc1cc(C)cc(OCC(=O)N[C@H](Cc2ccccc2)[C@H](O)C[C@@H](Cc2ccccc2)NC(=O)[C@@H](C(C)C)N2CCCNC2=O)c1 | 38 µM | 37%
3 | Cc1ccnc(C)c1OCC(=O)N[C@H](Cc1ccccc1)[C@H](O)C[C@@H](Cc1ccccc1)NC(=O)[C@@H](C(C)C)N1CCCNC1=O | 0.77 µM | 75%
4 | Cc1cccc(C)c1CCC(=O)N[C@H](Cc1ccccc1)[C@H](O)C[C@@H](Cc1ccccc1)NC(=O)[C@@H](C(C)C)N1CCCNC1=O | 2.6 µM | 70%
5 | CC(C)[C@H](C(=O)N[C@H](Cc1ccccc1)C[C@@H](O)[C@@H](Cc1ccccc1)NC(=O)COc1ccccc1)N1CCCNC1=O | 1.3 µM | 67%
6 | Cc1cc(C)c(OCC(=O)N[C@H](Cc2ccccc2)[C@H](O)C[C@@H](Cc2ccccc2)NC(=O)[C@@H](C(C)C)N2CCCNC2=O)c(C)c1 | 0.39 µM | 85%
7 | Cc1cc(F)cc(C)c1OCC(=O)N[C@H](Cc1ccccc1)[C@H](O)C[C@@H](Cc1ccccc1)NC(=O)[C@@H](C(C)C)N1CCCNC1=O | 0.49 µM | 90%
8 | Cc1cccc(C)c1SCC(=O)N[C@H](Cc1ccccc1)[C@H](O)C[C@@H](Cc1ccccc1)NC(=O)[C@@H](C(C)C)N1CCCNC1=O | 4.1 µM | 55%
9 | CC(C)[C@H](C(=O)N[C@H](Cc1ccccc1)C[C@@H](O)[C@@H](Cc1ccccc1)NC(=O)COc1c(Cl)cccc1Cl)N1CCCNC1=O | 2.8 µM | 87%
10 | Cc1ncnc(C)c1OCC(=O)N[C@H](Cc1ccccc1)[C@H](O)C[C@@H](Cc1ccccc1)NC(=O)[C@@H](C(C)C)N1CCCNC1=O | 4.2 µM | 79%
11 | Cc1cc(N)cc(C)c1OCC(=O)N[C@H](Cc1ccccc1)[C@H](O)C[C@@H](Cc1ccccc1)NC(=O)[C@@H](C(C)C)N1CCCNC1=O | 0.16 µM | 86%
12 | Cc1cccc(C)c1OCC(=O)N[C@@H](Cc1ccccc1)[C@@H](O)C[C@H](Cc1ccccc1)NC(=O)[C@H](C(C)C)N1CCCNC1=O (single isomer, unassigned) [LOPINAVIR] | 0.1 µM | 
13 | COc1cccc(OC)c1OCC(=O)N[C@H](Cc1ccccc1)[C@H](O)C[C@@H](Cc1ccccc1)NC(=O)[C@@H](C(C)C)N1CCCNC1=O | 14 µM | 38%
